Here are results for 4 compounds from ChEMBL document CHEMBL4406824, “Phenolic N-monosubstituted carbamates: Antitubercular and toxicity evaluation of multi-targeting compounds” (Eur J Med Chem, 2019).

Holding throughout (assay type): functional
In assay [1] the test system is Mycobacterium tuberculosis. In words: Antimycobacterial activity against multi drug resistant Mycobacterium tuberculosis 9449/2006 after 21 days. Particulars: 9449/2006, 504 h.
Assay [2] relates to Mycobacterium tuberculosis. Description: Antimycobacterial activity against multi drug resistant Mycobacterium tuberculosis 9449/2006 after 14 days. The note with it: 9449/2006, 336 h.
The subject of assay [3] is Mycobacterium tuberculosis. In words: Antimycobacterial activity against multi drug resistant Mycobacterium tuberculosis 7357/1998 after 21 days. The note with it: 7357/1998, 504 h.
Assay [4] deals with Mycobacterium tuberculosis. Description: Antimycobacterial activity against multi drug resistant Mycobacterium tuberculosis 7357/1998 after 14 days. Particulars: 7357/1998, 336 h.
The subject of assay [5] is Mycobacterium tuberculosis. Description: Antimycobacterial activity against multi drug resistant Mycobacterium tuberculosis 8666/2010 after 14 days. The note with it: 8666/2010, 336 h.
In assay [6] the test system is Mycobacterium tuberculosis. Description: Antimycobacterial activity against multi drug resistant Mycobacterium tuberculosis 8666/2010 after 21 days. Particulars: 8666/2010, 504 h.
The subject of assay [7] is Mycobacterium tuberculosis. Description: Antimycobacterial activity against multi drug resistant Mycobacterium tuberculosis 234/2005 after 14 days. Particulars: 234/2005, 336 h.
For assay [8], the system named is Mycobacterium tuberculosis. In words: Antimycobacterial activity against multi drug resistant Mycobacterium tuberculosis 234/2005 after 21 days. The note with it: 234/2005, 504 h.
Assay [9] relates to Mycobacterium tuberculosis. Description: Antimycobacterial activity against multi drug resistant Mycobacterium tuberculosis Praha 1 after 14 days. Particulars: Praha 1, 336 h.
In assay [10] the test system is Mycobacterium tuberculosis. In words: Antimycobacterial activity against multi drug resistant Mycobacterium tuberculosis Praha 1 after 21 days. The note with it: Praha 1, 504 h.
The test system of assay [11] is Mycobacterium tuberculosis. In words: Antimycobacterial activity against multi drug resistant Mycobacterium tuberculosis Praha 4 after 14 days. Particulars: Praha 4, 336 h.
Assay [12] concerns Mycobacterium tuberculosis. In words: Antimycobacterial activity against multi drug resistant Mycobacterium tuberculosis Praha 4 after 21 days. The note with it: Praha 4, 504 h.

Each structure is given as a SMILES string. ≈ marks a conversion by molar mass, not a printed value.

By MIC is commonly meant the lowest concentration that inhibits growth of the organism. Higher therefore signals a less susceptible organism. Consider `O=C(NC12CC3CC(CC(C3)C1)C2)Oc1ccc(Cl)cc1C(=O)Nc1ccc(C(F)(F)F)cc1`, for which the MIC in assay [1] was 1 µM (≈ 0.493 µg/mL); in [2], 1 µM (≈ 0.493 µg/mL); in [3], 1 µM (≈ 0.493 µg/mL); in assay [4], 0.5 µM (≈ 0.246 µg/mL); in assay [5], 0.5 µM (≈ 0.246 µg/mL); in assay [6], 1 µM (≈ 0.493 µg/mL). For the same compound, the minimum inhibitory concentration (MIC) stood at 1 µM (≈ 0.493 µg/mL) in [7]; 1 µM (≈ 0.493 µg/mL) in assay [8]; 0.5 µM (≈ 0.246 µg/mL) in [9]; 1 µM (≈ 0.493 µg/mL) in assay [10]; 0.5 µM (≈ 0.246 µg/mL) in assay [11]; 1 µM (≈ 0.493 µg/mL) in assay [12].

Regarding `O=C(NCCc1ccccc1)Oc1ccc(Cl)cc1C(=O)Nc1ccc(C(F)(F)F)cc1`, the MIC in [1] was found to be 2 µM (≈ 0.926 µg/mL); in assay [2] it was 2 µM (≈ 0.926 µg/mL); in [3] it was 2 µM (≈ 0.926 µg/mL); in assay [4] it was 1 µM (≈ 0.463 µg/mL); in assay [5] it was 2 µM (≈ 0.926 µg/mL); in [6], 2 µM (≈ 0.926 µg/mL). Moreover, the MIC in assay [7] was 2 µM (≈ 0.926 µg/mL); in assay [8], 2 µM (≈ 0.926 µg/mL); in [9], 1 µM (≈ 0.463 µg/mL); in assay [10], 1 µM (≈ 0.463 µg/mL); in assay [11], 2 µM (≈ 0.926 µg/mL); in assay [12] it was 2 µM (≈ 0.926 µg/mL).

`O=C(Nc1ccccc1)Oc1ccc(Cl)cc1C(=O)Nc1ccc(C(F)(F)F)cc1`: the MIC was determined as 1 µM (≈ 0.435 µg/mL) in assay [1]; 1 µM (≈ 0.435 µg/mL) in assay [2]; 1 µM (≈ 0.435 µg/mL) in assay [3]; 0.5 µM (≈ 0.217 µg/mL) in [4]; 0.5 µM (≈ 0.217 µg/mL) in assay [5]; 1 µM (≈ 0.435 µg/mL) in [6]. The MIC in assay [7] came to 1 µM (≈ 0.435 µg/mL); in assay [8] it was 1 µM (≈ 0.435 µg/mL); in assay [9] it was 0.5 µM (≈ 0.217 µg/mL); in [10] it was 1 µM (≈ 0.435 µg/mL); in assay [11], 0.5 µM (≈ 0.217 µg/mL); in assay [12] it was 1 µM (≈ 0.435 µg/mL).

With `O=C(NC1CCCCC1)Oc1ccc(Cl)cc1C(=O)Nc1ccc(C(F)(F)F)cc1`, the minimal inhibitory concentration (MIC) in [1] was found to be 1 µM (≈ 0.441 µg/mL); in assay [2], 0.5 µM (≈ 0.22 µg/mL); in assay [3], 1 µM (≈ 0.441 µg/mL); in assay [4], 0.5 µM (≈ 0.22 µg/mL); in [5], 0.5 µM (≈ 0.22 µg/mL); in assay [6], 1 µM (≈ 0.441 µg/mL). Also, the minimum inhibitory concentration (MIC) is 0.5 µM (≈ 0.22 µg/mL) in assay [7]; 1 µM (≈ 0.441 µg/mL) in [8]; 0.5 µM (≈ 0.22 µg/mL) in assay [9]; 1 µM (≈ 0.441 µg/mL) in [10]; 0.5 µM (≈ 0.22 µg/mL) in [11]; 1 µM (≈ 0.441 µg/mL) in assay [12].
